Paper PMC11065314, “Identification of compounds that cause axonal dieback without cytotoxicity in dorsal root ganglia explants and intervertebral disc cells with potential to treat pain via denervation” (PLOS ONE, 2024)
Values joined by “and” are separate entries in the source; they are usually repeats but may differ in a detail not shown here. Equal entries are not always repeated. Structures can show the parent of a compound that is named as a salt. Where two headings read alike, the source gives them in different places.

Experiments:
[1] = systemic administration; cited from earlier work
[2] = test system: dissociated DRG neurons from embryonic mice; set-up: method as in PMID 31484833; settings: 40 nM; cited from earlier work
[3] = test system: adult rat DRG explants; assay type: cell-based
[4] = DRG cytotoxicity assessment using LDH assay; assay type: cell-based, rat; settings: female, rat, rat dorsal root ganglion (DRG) explants, 100 nM, female rat DRG explant, single well
Procedure: (§1) 500 nM Imy and 10 nM Vcr were excluded from female rat DRG experiments while 500 nM Vcr and 1 mM Pyr were excluded from male rat DRG experiments due to insufficient DRG replicates with axon outgrowth. DRG media was removed from wells and transferred into a 96-well plate for pre-treat LDH cytotoxicity assay (see Methods below). 300 μL of media treatment solutions or solvent control solutions were added to wells. DRGs were incubated with treatment solutions for three days, and brightfield images at 4X magnification were taken using BioTek Cytation1 Plate Imager (Agilent) before treatment (day -1) and on days 1, 2 and 3 after treatment. DRGs from adult male and female rats were tested to determine if sex can affect axonal dieback. In total, 12 to 15 DRG replicates per group by sex harvested from n = 3 male and n = 3 female rats were tested.
(§2) Lactate dehydrogenase (LDH) is a cytosolic enzyme present in all cells. Dissociated rat DRG neurons release LDH during tunicamycin-induced apoptosis. […] An ideal axonal dieback compound should cause axonal degeneration without neurotoxicity. was assessed on day 3 post-treat and normalized to pre-treat levels to account for variability in DRG size and growth and calculated as a percentage of cytotoxicity to lysed DRGs (positive control). 50 μL of pre-treatment and post-treatment media were aliquoted in duplicates into a 96-well plate. LDH activity in the media post-treat was assessed using the CyQUANT^TM LDH Cytotoxicity Assay Kit (Thermo Fisher Scientific, C20301) according to the manufacturer’s instructions. Briefly, 50 μL of Substrate Mix was added to each well and then incubated at room temperature for 30 minutes protected from light. 50 μL of Stop solution was added to each well and the absorbance at 490 nm and 680 nm was measured using a microplate reader (Agilent). LDH activity of each DRG was calculated as the difference between absorbance at 490 nm after subtracting the background absorbance at 680 nm. As a positive control, 13 female rat DRGs and 15 male rat DRGs were treated for three days with Lysis buffer solution, provided in the kit, diluted 1:5.45 in DRG media. The percentage of cytotoxicity was calculated following Eq 2. Pre-treat levels of LDH activity were subtracted from post-treat LDH activity in each DRG to remove baseline LDH activity then percentage of cytotoxicity compared to positive control lysed DRG LDH activity was calculated. Sex is a biological factor that can influence neurotoxicity. Thus, percentage of cytotoxicity of total 11 to 14 DRG replicates per group by sex from n = 3 male and n = 3 female rats were tested.
(§3) Cytotoxicity(%)=(PosttreatLDHactivity)−(PretreatLDHactivity)/(MaximumLDHactivityfromlysedDRGs)−(PretreatLDHactivity)×100% (2)

[5] = test system: rat DRG explants; assay: DRG cytotoxicity assessment using LDH assay; assay type: cell-based; settings: for Cytotoxicity (%): female rat DRG explant, single well
Procedure: as §1, §2, §3

[6] = test system: adult rat DRG neurons; set-up: method as in PMID 32388569; settings: below 1000 nM; cited from earlier work

## CC[C@]1(O)C[C@H]2CN(CCc3c([nH]c4ccccc34)[C@@](C(=O)OC)(c3cc4c(cc3OC)N(C=O)[C@H]3[C@@](O)(C(=O)OC)[C@H](OC(C)=O)[C@]5(CC)C=CCN6CC[C@]43[C@@H]65)C2)C1 [Vcr, vincristine sulfate]
[1]
  Chemotherapy patients developing peripheral neuropathy: 96%
[2]
  Time to axon degeneration: ≤ 12 h
  Time to complete axon fragmentation: ≤ 36 h
[3]
  Axon length ratio compared to PBS control: significantly lower axon length ratio than PBS control
  Day on which Caps axon length ratio threshold (0.45) was met: ≤ 1 days
  Original axon length left behind: less than 8.1%
[3]; 100 nM
  Day on which Caps axon length ratio threshold (0.45) was met: ≤ 2 days
[4]
  cytotoxicity at 3 days, 0.1 µM: 15.5%
[5]; 1 nM, 0.001 µM
  Cytotoxicity (%): 6.189% and 9.7112% and 4.38%
[5]; 10 nM, day 3, male rat DRGs only, relative to lysed DRGs
  Percentage of DRG cytotoxicity, Mean (SD): 7.02 (4.36) %
[5]; 100 nM, day 3
  Percentage of cytotoxicity less than lysed DRGs: 89.8%
[5]; 100 nM, 0.1 µM
  Cytotoxicity (%): 11.901%
[5]; 500 nM, 0.5 µM
  Cytotoxicity (%): 7.521% and 12.2818% and 15.3285%
[5]; all concentrations tested, day 3
  Overall cytotoxicity lower compared to lysed DRGs: at least 88%
[6]
  Cytotoxicity: does not induce cytotoxicity
